This assay relates to HCV 1b genotype. The assay is described as follows: HCV replicon assay (HCV-neo replicon cells). The format is cell-based. Particulars: Hepatitis C virus, HCV 1b genotype replicon. As to the method: An HCV Replion assay was utilized in the present disclosure, and was prepared, conducted and validated as described in commonly owned PCT/US2006/022197 and in O'Boyle et. al. Antimicrot Agents Chemother. 2005 April; 49(4):1346-53.
HCV-neo replicon cells were used to test the currently described compound series as well as cells resistant to compound A containing mutations in NS5A (described in application PCT/US2006/022197). The compounds tested were determined to have more than 10-fold less inhibitory activity on cells containing the mutation than wild-type cells indicating a related mechanism of action between the two compound series. Thus, the compounds of the present disclosure can be effective to inhibit the function of the HCV NS5A protein and are understood to be as effective in combinations as previously described in application PCT/US2006/022197 and commonly owned WO 04/014852. Further, the compounds of the present disclosure can be effective against the HCV 1b genotype. It should also be understood that the compounds of the present disclosure can inhibit multiple genotypes of HCV. […] In one embodiment compounds of the present disclosure are active against the 1a, 1b, 2a, 2b, 3a, 4a, and 5a genotypes. Activity ranges are as follows: A=501 nM-1 μM; B 1-500 nM; C=100-999 pM.

Read-outs that look alike come from different tables or passages of the source.

For the compound `COC(=O)N[C@H](C(=O)N1CCC[C@H]1c1ncc(-c2ccc(-c3ccc4ncnc(Nc5ccc(N6CCOCC6)cc5)c4c3)cc2)[nH]1)C(C)C` [Example 1], the EC50 (activity range class) was in the range of 0.001 to 0.5 µM.

On to `CC(=O)N1CCC[C@H]1c1ncc(-c2ccc(-c3ccc4ncnc(Nc5ccc(N6CCOCC6)cc5)c4c3)cc2)[nH]1` [Example 6], for which the EC50 (activity range class) lay within 0.501 to 1 µM. On to `CC(C)(C)OC(=O)N1CCC[C@H]1c1ncc(-c2ccc(-c3ccc4ncnc(Nc5ccc(N6CCOCC6)cc5)c4c3)cc2)[nH]1` [Example 1 step e], for which the EC50 (activity range class) was in the range of 0.001 to 0.5 µM. Regarding `c1nc(Nc2ccc(N3CCOCC3)cc2)c2cc(-c3ccc(-c4cnc([C@@H]5CCCN5)[nH]4)cc3)ccc2n1` [Example 1 step f], the EC50 (read-out: EC50 Range/Value) came out at 1.51 µM.

The values are drawn from patent US8093243B2, “Hepatitis C virus inhibitors” (Bristol-Myers Squibb Company, priority 2008, dated 2012).
